Data: patent US11826351B2, “Compounds useful as kinase inhibitors” (Loxo Oncology, Inc., priority 2015, dated 2023)
pIC50: −log10 of the molar value. Where two headings read alike, the source gives them in different places.

Assays:
Recombinant EGFR = molecular target: T1, Recombinant EGFR (Homo sapiens, UniProt P00533); test: EGFR binding affinity (LanthaScreen TR-FRET); conditions: Kinase Tracer 199, 5 h incubation
T1 construct: purchased Invitrogen
Experimental: EGFR binding affinity was determined using a time-resolved fluorescence resonance energy transfer (TR-FRET) methodology. […] Recombinant EGFR and all LanthaScreen™ components were purchased from Invitrogen. Measurements were performed in a reaction volume of 30 μL using half-area 96-well assay plates. […] Binding affinity was determined for each compound by measuring TR-FRET signal at various concentrations of compound and plotting the relative fluorescence units against the inhibitor concentration to estimate the IC50 from log[Inhibitor] vs response using the Variable Slope model in Graphpad prism from Graphpad software (San Diego, Calif.).

[1] = molecular target: T2, Recombinant BTK^WT kinase (Homo sapiens, UniProt Q06187); test: BTK WT binding affinity (LanthaScreen TR-FRET); conditions: Kinase Tracer 236, 5 h incubation
T2 construct: purchased Invitrogen
T2 sequence (Q06187 whole entry): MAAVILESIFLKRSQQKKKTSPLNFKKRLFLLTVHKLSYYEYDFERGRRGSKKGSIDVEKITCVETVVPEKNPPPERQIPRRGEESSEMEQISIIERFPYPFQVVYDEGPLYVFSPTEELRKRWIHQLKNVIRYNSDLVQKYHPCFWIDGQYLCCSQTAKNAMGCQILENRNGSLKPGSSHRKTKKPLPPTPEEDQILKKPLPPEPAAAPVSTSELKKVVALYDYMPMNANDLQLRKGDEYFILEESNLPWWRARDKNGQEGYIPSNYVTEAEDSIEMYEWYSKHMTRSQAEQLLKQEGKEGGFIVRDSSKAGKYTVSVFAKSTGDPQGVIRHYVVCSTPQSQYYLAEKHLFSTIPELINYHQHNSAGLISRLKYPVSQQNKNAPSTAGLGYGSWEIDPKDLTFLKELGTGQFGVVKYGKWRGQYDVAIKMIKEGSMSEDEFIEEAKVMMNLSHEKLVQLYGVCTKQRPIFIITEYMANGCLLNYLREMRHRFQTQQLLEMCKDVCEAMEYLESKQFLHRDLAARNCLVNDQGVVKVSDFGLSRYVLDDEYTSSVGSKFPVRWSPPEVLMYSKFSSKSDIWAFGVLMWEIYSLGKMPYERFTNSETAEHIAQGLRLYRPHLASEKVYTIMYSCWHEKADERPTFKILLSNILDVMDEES
Experimental: BTK^WT binding affinity of each compound tested was determined using a time-resolved fluorescence resonance energy transfer (TR-FRET) methodology. 2.5 nM Recombinant BTK^WT kinase, varying concentrations of inhibitor, 2 nM LanthaScreen™ Eu anti-His Antibody and 15 nM Kinase Tracer 236 was incubated in 1× LanthaScreen™ Kinase Buffer A for 5 h. Recombinant BTK kinase and all LanthaScreen™ components were purchased from Invitrogen. Measurements were performed in a reaction volume of 30 μL using half-area 96-well assay plates. The TR-FRET signal was read on a plate reader with an excitation wavelength of 340 nm and detection wavelengths of 615 and 665 nm. Binding affinity was determined for each compound by measuring TR-FRET signal at various concentrations of compound and plotting the relative fluorescence units against the inhibitor concentration to estimate the IC50 from log[Inhibitor] vs response using the Variable Slope model in Graphpad prism from Graphpad software (San Diego, Calif.).

[2] = molecular target: T3, Recombinant BTK^C481S kinase (Homo sapiens, UniProt Q06187, C481S); test: BTK C481S binding affinity (LanthaScreen TR-FRET); conditions: Kinase Tracer 236, 5 h incubation
T3 construct: purchased SignalChem
T3 sequence (Q06187 whole entry C481S): as the sequence (Q06187 whole entry) above, with C481S counted along it
Experimental: BTK^C481S binding affinity of each compound tested was determined using a time-resolved fluorescence resonance energy transfer (TR-FRET) methodology. 5 nM Recombinant BTK^WT kinase, varying concentrations of inhibitor, 2 nM LanthaScreen™ Eu anti-His Antibody and 30 nM Kinase Tracer 236 was incubated in 1× LanthaScreen™ Kinase Buffer A for 5 h. Recombinant BTK^C481S kinase was purchased from SignalChem and all LanthaScreen™ components were purchased from Invitrogen. Measurements were performed in a reaction volume of 30 μL using half-area 96-well assay plates. The TR-FRET signal was read on a plate reader with an excitation wavelength of 340 nm and detection wavelengths of 615 and 665 nm. Binding affinity was determined for each compound by measuring TR-FRET signal at various concentrations of compound and plotting the relative fluorescence units against the inhibitor concentration to estimate the IC50 from log[Inhibitor] vs response using the Variable Slope model in Graphpad prism from Graphpad software (San Diego, Calif.).

[3] = tested on: OCI-Ly10 human DLBCL cells; test: OCI-Ly10 anti-proliferative activity (Resazurin); assay type: cell-based; conditions: OCI-Ly10 cells, 72 h compound treatment, Resazurin, read-out: Proliferation Assay OCI-Ly10-20% FBS
Experimental: Compounds were assayed for effects on the growth of OCI-Ly10 human DLBCL cells that are dependent on NFκB signalling. […] Cells were then plated at 7.5×10^3 cells per well in 96-well plates in varying concentrations of compound and incubated for 72 h at 37° C. An additional plate of cells to be used as the Day 0 read was seeded without compound addition, Resazurin was added to each well, incubated for 5 h and the fluorescence measured at 590 nm. After 72 h of compound treatment, Resazurin was added to each well of the compound treated plates, incubated for 5 h and the fluorescence measured at 590 nm. The IC50 was then calculated by subtracting the average Day 0 value from each well value from the treated plates, each treatment was then calculated as a percentage of the DMSO control and the percentages plotted against the inhibitor concentration to estimate the IC50 from log[Inhibitor] vs response using the Variable Slope model in Graphpad prism from Graphpad software (San Diego, Calif.).

T1 sequence (P00533 25-1210): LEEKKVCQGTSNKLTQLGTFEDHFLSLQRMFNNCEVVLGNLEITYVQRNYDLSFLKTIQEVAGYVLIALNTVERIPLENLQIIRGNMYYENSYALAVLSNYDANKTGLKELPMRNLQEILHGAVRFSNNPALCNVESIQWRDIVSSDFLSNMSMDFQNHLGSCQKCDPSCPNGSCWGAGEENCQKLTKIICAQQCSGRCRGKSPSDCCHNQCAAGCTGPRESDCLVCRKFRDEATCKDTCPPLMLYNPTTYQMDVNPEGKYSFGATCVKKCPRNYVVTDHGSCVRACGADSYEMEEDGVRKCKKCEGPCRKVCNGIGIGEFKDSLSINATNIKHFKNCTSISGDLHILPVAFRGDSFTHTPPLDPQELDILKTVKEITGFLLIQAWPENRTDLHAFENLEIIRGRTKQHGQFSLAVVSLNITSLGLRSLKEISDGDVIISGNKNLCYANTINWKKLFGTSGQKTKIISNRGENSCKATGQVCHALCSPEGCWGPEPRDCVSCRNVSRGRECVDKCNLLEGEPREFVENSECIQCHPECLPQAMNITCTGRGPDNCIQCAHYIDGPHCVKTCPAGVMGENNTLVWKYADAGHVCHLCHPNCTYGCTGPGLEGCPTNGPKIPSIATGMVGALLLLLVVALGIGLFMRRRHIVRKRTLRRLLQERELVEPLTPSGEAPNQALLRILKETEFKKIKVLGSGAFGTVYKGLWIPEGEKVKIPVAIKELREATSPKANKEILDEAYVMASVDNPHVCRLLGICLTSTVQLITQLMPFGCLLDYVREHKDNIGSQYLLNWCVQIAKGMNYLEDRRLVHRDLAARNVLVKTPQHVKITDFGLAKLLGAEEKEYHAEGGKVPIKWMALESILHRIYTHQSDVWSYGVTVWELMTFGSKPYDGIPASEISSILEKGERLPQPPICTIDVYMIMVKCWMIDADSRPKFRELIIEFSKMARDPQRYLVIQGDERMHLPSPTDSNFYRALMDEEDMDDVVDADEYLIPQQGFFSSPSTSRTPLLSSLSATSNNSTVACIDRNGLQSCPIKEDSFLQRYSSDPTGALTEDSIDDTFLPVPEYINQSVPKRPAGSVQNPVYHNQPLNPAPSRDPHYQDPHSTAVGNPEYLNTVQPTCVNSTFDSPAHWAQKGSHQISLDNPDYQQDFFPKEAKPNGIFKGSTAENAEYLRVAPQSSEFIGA

Row | Structure (SMILES) | pIC50 (Recombinant EGFR) | pIC50 [1] | pIC50 [2] | pIC50 ([3]; Homo sapiens, OCI-Ly10, 72 h) | pIC50 [3]
1 | COc1ccccc1C(=O)NCc1ccc(-c2nn(C3CCCCC3)c(N)c2C(N)=O)cc1 [Example 18, 5-amino-1-cyclohexyl-3-[4-[[(2-methoxybenzoyl)amino]methyl]phenyl]pyrazole-4-carboxamide] | 6.00 to 7.00 | > 8.00 | > 8.00 | > 8.00 | 7.00 to 8.00
2 | CNc1c(C(N)=O)c(-c2ccc(CNC(=O)c3ccccc3OC)cc2)nn1C1CCOCC1 [Example 91, 3-[4-[[(2-methoxybenzoyl)amino]methyl]phenyl]-5-(methylamino)-1-tetrahydropyran-4-yl-pyrazole-4-carboxamide] | 5.00 to 6.00 | 7.00 to 8.00 | > 8.00 | 6.00 to 7.00 | –
3 | COc1ccccc1C(=O)NCc1ccc(-c2nn(-c3ccncc3)c(N)c2C(N)=O)cc1 [Example 54, 5-amino-3-[4-[[(2-methoxybenzoyl)amino]methyl]phenyl]-1-(4-pyridyl)pyrazole-4-carboxamide] | 5.00 to 6.00 | 7.00 to 8.00 | > 8.00 | 6.00 to 7.00 | –
4 | COc1ccccc1C(=O)NCc1ccc(-c2nn(CC(=O)C(C)(C)C)c(N)c2C(N)=O)cc1 [Example 10, 5-Amino-1-(3,3-dimethyl-2-oxo-butyl)-3-[4-[[(2-methoxybenzoyl)amino]methyl]phenyl]pyrazole-4-carboxamide] | 5.00 to 6.00 | 7.00 to 8.00 | 7.00 to 8.00 | 6.00 to 7.00 | –
5 | COc1ccccc1C(=O)NCc1ccc(-c2nn(C3CC(C)OC(C)C3)c(N)c2C(N)=O)cc1 (centres unmarked) [Example 104, 5-amino-1-(2,6-dimethyltetrahydropyran-4-yl)-3-[4-[[(2-methoxybenzoyl)amino]methyl]phenyl]pyrazole-4-carboxamide] | 5.00 to 6.00 | 7.00 to 8.00 | > 8.00 | 6.00 to 7.00 | –
6 | COc1ccccc1C(=O)NCc1ccc(-c2nn(C3CCCC(=O)C3)c(N)c2C(N)=O)cc1 (centres unmarked) [Example 12, 5-amino-3-[4-[[(2-methoxybenzoyl)amino]methyl]phenyl]-1-(3-oxocyclohexyl)pyrazole-4-carboxamide] | < 5.00 | 6.00 to 7.00 | 6.00 to 7.00 | 5.00 to 6.00 | –
7 | COc1ccccc1C(=O)NCc1ccc(-c2nn(C3CCCC3)c(NC(C)C)c2C(N)=O)cc1 [Example 72, 1-cyclopentyl-5-(isopropylamino)-3-[4-[[(2-methoxybenzoyl)amino]methyl]phenyl]pyrazole-4-carboxamide] | 5.00 to 6.00 | 7.00 to 8.00 | > 8.00 | 6.00 to 7.00 | –
8 | COc1ccc(F)cc1C(=O)NCc1ccc(-c2nn(C3CCOC3)c(N)c2C(N)=O)cc1 (centres unmarked) [Example 114, 5-amino-3-[4-[[(5-fluoro-2-methoxy-benzoyl)amino]methyl]phenyl]-1-tetrahydrofuran-3-yl-pyrazole-4-carboxamide] | 5.00 to 6.00 | > 8.00 | > 8.00 | 7.00 to 8.00 | –
9 | COc1ccccc1C(=O)NCc1ccc(-c2nn(C3CCC4(CC3)COC4)c(N)c2C(N)=O)cc1 [Example 71, 5-amino-3-[4-[[(2-methoxybenzoyl)amino]methyl]phenyl]-1-(2-oxaspiro[3.5]nonan-7-yl)pyrazole-4-carboxamide] | 6.00 to 7.00 | > 8.00 | > 8.00 | 7.00 to 8.00 | –
10 | CONC(=O)C1CCC(n2nc(-c3ccc(CNC(=O)c4ccccc4OC)cc3)c(C(N)=O)c2N)CC1 (mixture of isomers) [Example 75, 5-amino-3-[4-[[(2-methoxybenzoyl)amino]methyl]phenyl]-1-[4-(methoxycarbamoyl)cyclohexyl]pyrazole-4-carboxamide] | 6.00 to 7.00 | > 8.00 | > 8.00 | 6.00 to 7.00 | –
11 | COc1ccccc1C(=O)NCc1ccc(-c2nn(C3CCOCC3F)c(N)c2C(N)=O)cc1 (single isomer, unassigned) [Example 96, 5-amino-1-[3-fluorotetrahydropyran-4-yl]-3-[4-[[(2-methoxybenzoyl)amino]methyl]phenyl]pyrazole-4-carboxamide] | 5.00 to 6.00 | > 8.00 | > 8.00 | – | 7.00 to 8.00
12 | COc1ccccc1C(=O)NCc1ccc(-c2nn(C3CCCC3)c(N)c2C(N)=O)cc1C [Example 62, 5-amino-1-cyclopentyl-3-[4-[[(2-methoxybenzoyl)amino]methyl]-3-methyl-phenyl]pyrazole-4-carboxamide] | 6.00 to 7.00 | > 8.00 | > 8.00 | 7.00 to 8.00 | –

Results, then the compound that gave them:

Row | pIC50 (Recombinant EGFR) | pIC50 [1] | pIC50 [2] | pIC50 ([3]; Homo sapiens, OCI-Ly10, 72 h) | pIC50 [3] | Structure (SMILES)
13 | 5.00 to 6.00 | 7.00 to 8.00 | 7.00 to 8.00 | 6.00 to 7.00 | – | COc1ccc(F)cc1C(=O)NCc1ccc(-c2nn(C(C3CCOC3)C(F)(F)F)c(N)c2C(N)=O)cc1 (mixture of isomers) [Example 175, 5-amino-3-[4-[[(5-fluoro-2-methoxy-benzoyl)amino]methyl]phenyl]-1-(2,2,2-trifluoro-1-tetrahydrofuran-3-yl-ethyl)pyrazole-4-carboxamide]
14 | 5.00 to 6.00 | > 8.00 | > 8.00 | 7.00 to 8.00 | – | COc1ccc(F)cc1C(=O)NCc1ccc(-c2nn([C@H](C)C(F)(F)F)c(N)c2C(N)=O)cc1 (single isomer, unassigned) [Example 163b, 5-amino-3-[4-[[(5-fluoro-2-methoxy-benzoyl)amino]methyl]phenyl]-1-(2,2,2-trifluoro-1-methyl-ethyl)pyrazole-4-carboxamide]
15 | < 5.00 | > 8.00 | > 8.00 | 7.00 to 8.00 | – | COc1ccccc1C(=O)NCc1cc(F)c(-c2nn(C3CCCC3)c(N)c2C(N)=O)cc1F [Example 156, 5-amino-1-cyclopentyl-3-[2,5-difluoro-4-[[(2-methoxybenzoyl)amino]methyl]phenyl]pyrazole-4-carboxamide]
16 | 5.00 to 6.00 | > 8.00 | > 8.00 | 7.00 to 8.00 | – | COc1ccc(F)cc1C(=O)NCc1ccc(-c2nn(C(C(C)C)C(F)(F)F)c(N)c2C(N)=O)cc1 (centres unmarked) [Example 180, 5-amino-3-[4-[[(5-fluoro-2-methoxy-benzoyl)amino]methyl]phenyl]-1-[2-methyl-1-(trifluoromethyl)propyl]pyrazole-4-carboxamide]
17 | 5.00 to 6.00 | 7.00 to 8.00 | > 8.00 | 6.00 to 7.00 | – | COc1ccccc1C(=O)NCc1ccc(-c2nn(C(C)C(F)F)c(N)c2C(N)=O)cc1 (centres unmarked) [Example 126, 5-amino-1-(2,2-difluoro-1-methyl-ethyl)-3-[4-[[(2-methoxybenzoyl)amino]methyl]phenyl]pyrazole-4-carboxamide]
18 | < 5.00 | 7.00 to 8.00 | 7.00 to 8.00 | 6.00 to 7.00 | – | COc1ccc(F)cc1C(=O)NCc1c(F)cc(-c2nn(C3CCCOC3)c(N)c2C(N)=O)cc1F (centres unmarked) [Example 158, 5-amino-3-[3,5-difluoro-4-[[(5-fluoro-2-methoxy-benzoyl)amino]methyl]phenyl]-1-tetrahydropyran-3-yl-pyrazole-4-carboxamide]
19 | 5.00 to 6.00 | > 8.00 | > 8.00 | 7.00 to 8.00 | – | COc1ccccc1C(=O)NCc1ccc(-c2nn(C3CN(C)CC3(F)F)c(N)c2C(N)=O)cc1 (centres unmarked) [Example 167, 5-amino-1-(4,4-difluoro-1-methyl-pyrrolidin-3-yl)-3-[4-[[(2-methoxybenzoyl)amino]methyl]phenyl]pyrazole-4-carboxamide]
